Test results published in ChEMBL document CHEMBL4138123, “Design, synthesis and biological evaluation of novel pyrazolochalcones as potential modulators of PI3K/Akt/mTOR pathway and inducers of apoptosis in breast cancer cells” (Eur J Med Chem, 2017).

How the values were obtained:
Format in all cases: functional
UACC-62 = assay: Cytotoxicity against human UACC62 cells assessed as cell growth at 1 uM after 48 hrs by sulforhodamine B assay relative to control; conditions: UACC-62, 48 h, read-out: Activity
MDA-MB-435 = assay: Cytotoxicity against human MDA-MB-435 cells assessed as cell growth at 1 uM after 48 hrs by sulforhodamine B assay relative to control; conditions: MDA-MB-435, 48 h, read-out: Activity
OVCAR-3 = assay: Cytotoxicity against human OVCAR3 cells assessed as growth inhibition after 48 hrs by sulforhodamine B assay; conditions: OVCAR-3, 48 h
MDA-MB-468 = assay: Cytotoxicity against human MDA-MB-468 cells assessed as cell growth at 100 uM after 48 hrs by sulforhodamine B assay relative to control; conditions: MDA-MB-468, 48 h, read-out: Activity
NCI/ADR-RES = assay: Cytotoxicity against human NCI/ADR-RES cells assessed as cell growth at 1 uM after 48 hrs by sulforhodamine B assay relative to control; conditions: read-out: Activity
TK-10 [1] = assay: Cytotoxicity against human TK10 cells assessed as cell growth at 0.1 uM after 48 hrs by sulforhodamine B assay relative to control; conditions: TK-10, 48 h, read-out: Activity
HCT-116 = assay: Cytotoxicity against human HCT116 cells assessed as cell growth at 0.01 uM after 48 hrs by sulforhodamine B assay relative to control; conditions: HCT-116, 48 h, read-out: Activity
SF-268 = assay: Cytotoxicity against human SF268 cells assessed as cell growth at 100 uM after 48 hrs by sulforhodamine B assay relative to control; conditions: SF-268, 48 h, read-out: Activity
PC-3 [2] = assay: Cytotoxicity against human PC3 cells assessed as cell growth at 0.1 uM after 48 hrs by sulforhodamine B assay relative to control; conditions: PC-3, 48 h, read-out: Activity
786-0 [3] = assay: Cytotoxicity against human 786-0 cells assessed as cell growth at 10 uM after 48 hrs by sulforhodamine B assay relative to control; conditions: 786-0, 48 h, read-out: Activity
T47D [4] = assay: Cytotoxicity against human T47D cells assessed as cell growth at 0.1 uM after 48 hrs by sulforhodamine B assay relative to control; conditions: read-out: Activity
SF-539 [5] = assay: Cytotoxicity against human SF539 cells assessed as cell growth at 1 uM after 48 hrs by sulforhodamine B assay relative to control; conditions: SF-539, 48 h, read-out: Activity
Hs-578T = assay: Cytotoxicity against human Hs 578T cells assessed as cell growth at 100 uM after 48 hrs by sulforhodamine B assay relative to control; conditions: read-out: Activity
HCC 2998 = assay: Cytotoxicity against human HCC2998 cells assessed as cell growth at 100 uM after 48 hrs by sulforhodamine B assay relative to control; conditions: HCC 2998, 48 h, read-out: Activity
KM12 [6] = assay: Cytotoxicity against human KM12 cells assessed as cell growth at 1 uM after 48 hrs by sulforhodamine B assay relative to control; conditions: KM12, 48 h, read-out: Activity
IGROV-1 = assay: Cytotoxicity against human IGROV1 cells assessed as cell growth at 1 uM after 48 hrs by sulforhodamine B assay relative to control; conditions: IGROV-1, 48 h, read-out: Activity
SK-MEL-5 = assay: Cytotoxicity against human SK-MEL-5 cells assessed as cell growth at 100 uM after 48 hrs by sulforhodamine B assay relative to control; conditions: SK-MEL-5, 48 h, read-out: Activity
COLO 205 = assay: Cytotoxicity against human COLO205 cells assessed as cell growth at 1 uM after 48 hrs by sulforhodamine B assay relative to control; conditions: COLO 205, 48 h, read-out: Activity
RPMI-8226 = assay: Cytotoxicity against human RPMI8226 cells assessed as cell growth at 10 uM after 48 hrs by sulforhodamine B assay relative to control; conditions: RPMI-8226, 48 h, read-out: Activity
HCT-15 = assay: Cytotoxicity against human HCT15 cells assessed as cell growth at 100 uM after 48 hrs by sulforhodamine B assay relative to control; conditions: HCT-15, 48 h, read-out: Activity
SN12C [7] = assay: Cytotoxicity against human SN12C cells assessed as cell growth at 0.1 uM after 48 hrs by sulforhodamine B assay relative to control; conditions: read-out: Activity
SN12C [8] = assay: Cytotoxicity against human SN12C cells assessed as cell growth at 10 uM after 48 hrs by sulforhodamine B assay relative to control; conditions: read-out: Activity
SN12C [9] = assay: Cytotoxicity against human SN12C cells assessed as cell growth at 1 uM after 48 hrs by sulforhodamine B assay relative to control; conditions: read-out: Activity
T47D [10] = assay: Cytotoxicity against human T47D cells assessed as cell growth at 0.01 uM after 48 hrs by sulforhodamine B assay relative to control; conditions: read-out: Activity
SNB-19 = assay: Cytotoxicity against human SNB19 cells assessed as cell growth at 0.1 uM after 48 hrs by sulforhodamine B assay relative to control; conditions: SNB-19, 48 h, read-out: Activity
SK-MEL-28 = assay: Cytotoxicity against human SK-MEL-28 cells assessed as growth inhibition after 48 hrs by sulforhodamine B assay; conditions: SK-MEL-28, 48 h
CCRF-CEM [11] = assay: Cytotoxicity against human CCRF-CEM cells assessed as cell growth at 100 uM after 48 hrs by sulforhodamine B assay relative to control; conditions: read-out: Activity
KM12 [12] = assay: Cytotoxicity against human KM12 cells assessed as cell growth at 0.01 uM after 48 hrs by sulforhodamine B assay relative to control; conditions: KM12, 48 h, read-out: Activity
PC-3 [13] = assay: Cytotoxicity against human PC3 cells assessed as growth inhibition after 48 hrs by sulforhodamine B assay; conditions: PC-3, 48 h
CCRF-CEM [14] = assay: Cytotoxicity against human CCRF-CEM cells assessed as cell growth at 10 uM after 48 hrs by sulforhodamine B assay relative to control; conditions: read-out: Activity
SF-539 [15] = assay: Cytotoxicity against human SF539 cells assessed as cell growth at 0.1 uM after 48 hrs by sulforhodamine B assay relative to control; conditions: SF-539, 48 h, read-out: Activity
NCI-H460 = assay: Cytotoxicity against human NCI-H460 cells assessed as cell growth at 0.1 uM after 48 hrs by sulforhodamine B assay relative to control; conditions: NCI-H460, 48 h, read-out: Activity
TK-10 [16] = assay: Cytotoxicity against human TK10 cells assessed as cell growth at 10 uM after 48 hrs by sulforhodamine B assay relative to control; conditions: TK-10, 48 h, read-out: Activity
T47D [17] = assay: Cytotoxicity against human T47D cells assessed as growth inhibition after 48 hrs by sulforhodamine B assay
U-251 = assay: Cytotoxicity against human U251 cells assessed as cell growth at 0.01 uM after 48 hrs by sulforhodamine B assay relative to control; conditions: U-251, 48 h, read-out: Activity
786-0 [18] = assay: Cytotoxicity against human 786-0 cells assessed as cell growth at 1 uM after 48 hrs by sulforhodamine B assay relative to control; conditions: 786-0, 48 h, read-out: Activity

`COc1cc(-c2cc(/C=C/C(=O)c3ccc4c(c3)OCO4)[nH]n2)cc(OC)c1OC` was tested, and the growth at 1 µM (UACC-62) was 99%, the growth at 1 µM (MDA-MB-435) was 90% and the LC50 (OVCAR-3) was > 100 µM. The TGI (OVCAR-3) was 12.3 µM, the growth at 100 µM (MDA-MB-468) was -85% and the growth at 1 µM (NCI/ADR-RES) was 96%. It also gave a growth at 0.1 µM (TK-10 [1]) of 87%, a growth at 0.01 µM (HCT-116) of 104% and a growth at 100 µM (SF-268) of -26%. It also gave a growth at 0.1 µM (PC-3 [2]) of 99%, a growth at 10 µM (786-0 [3]) of -30% and a growth at 0.1 µM (T47D [4]) of 91%. It also gave a growth at 1 µM (SF-539 [5]) of 86%, a growth at 100 µM (Hs-578T) of -2% and a growth at 100 µM (HCC 2998) of -50%. The growth at 1 µM (KM12 [6]) was 89%, the growth at 1 µM (IGROV-1) was 99% and the growth at 100 µM (SK-MEL-5) was 8%. It also gave a growth at 1 µM (COLO 205) of 93%, a growth at 10 µM (RPMI-8226) of -41% and a growth at 100 µM (HCT-15) of -10%. It also gave a growth at 0.1 µM (SN12C [7]) of 96%, a growth at 10 µM (SN12C [8]) of 22% and a growth at 1 µM (SN12C [9]) of 91%. For the same compound, the growth at 0.01 µM (T47D [10]) was 100%, the growth at 0.1 µM (SNB-19) was 88% and the LC50 (SK-MEL-28) was > 100 µM. The TGI (SK-MEL-28) was 7.34 µM, the growth at 100 µM (CCRF-CEM [11]) was -13% and the growth at 0.01 µM (KM12 [12]) was 96%. For the same compound, the LC50 (PC-3 [13]) was > 100 µM, the TGI (PC-3 [13]) was 13.7 µM and the growth at 10 µM (CCRF-CEM [14]) was -19%. The growth at 0.1 µM (SF-539 [15]) was 99%, the growth at 0.1 µM (NCI-H460) was 105% and the growth at 10 µM (TK-10 [16]) was -31%. For the same compound, the LC50 (T47D [17]) was > 100 µM, the TGI (T47D [17]) was 17 µM and the growth at 0.01 µM (U-251) was 96%. The growth at 1 µM (786-0 [18]) was 96%.
